“Also recorded” adds a separate entry of the source.
Experiments:
[1] = tested on: bryostatin-1-induced HIV-1 reactivation in Jurkat-LAT-GFP cells; assay: Effect of PKC/MEK inhibitors on bryostatin-1-induced GFP expression in Jurkat-LAT-GFP cells; assay type: cell-based; details: Jurkat-LAT-GFP cells preincubated with inhibitor, then bryostatin-1 (10 nM) 6 h
Method: The primary interest in Bryostatins has been initiated by recognition of the potent antiproliferative effects against various tumour cells. Such effects have been related to the ability of Bryo-1 to modulate protein kinase C (PKC) activity by activating or degrading certain isoforms of PKC. Since PKC activation mediates different signal pathways that in turn activate the transcription of latent HIV-1, we preincubated Jurkat-LAT-GFP cells with medium or the chemical inhibitors Gö6976 (classical PKCs inhibitor), Gö66850 (classical and novel PKCs inhibitor), Gö6983 (pan-PKC inhibitor), rottlerin (PKCδ inhibitor) and PD98059 (MEK inhibitor) at effective concentrations.
Jurkat LAT-GFP cells were pretreated with the indicated inhibitors for 30 min at the indicated dose, and then stimulated with bryostatin-1 (10 nM) for 6 h. The percentage of GFP+ cells was measured by flow cytometry. Results, shown in FIG. 9, are represented as percentage of activation compared to cells treated with agonists in the absence of the chemical inhibitors (100% activation). The chemical inhibitors Gö6976 (classical PKCs inhibitor), Gö6850 (classical and novel PKCs inhibitor), Gö6983 (pan-PKC inhibitor), rottlerin (PKCδ inhibitor) and PD98059 (MEK inhibitor) were used at the indicated concentrations.

[2] = tested on: HIV-1 latency in Jurkat-LAT-GFP cells; assay: HIV-1 reactivation in Jurkat-LAT-GFP cells (percentage of GFP+ cells by flow cytometry); assay type: cell-based; details: for HIV-1 reactivation: 10 nM
CD4 = assay: Cell surface expression of CD4 on MT-2 cells by flow cytometry; assay type: cell-based, human
Method: (§1) This effect, shown in FIG. 12, is mediated though a PKC-dependent pathway and is not affected by the presence of VPA. MT-2 cells were treated with 10 nM of bryostatin in the presence or absence of either the PKC inhibitor Gö6850 or the HDAC inhibitor VPA for 24 h and the expression of CD4 and CXCR4 analysed. Cell surface expression of CD4 and CXCR4 antigens were measured by direct fluorescence using specific mAbs and analyzed by flow cytometry in an EPIC XL flow cytometer (Beckman-Coulter Inc. CA, USA). The anti-CXCR4 (clone 12G5, PE-labeled) was from BD Biosciences Pharmigen (San Diego, Calif., USA). The mAb anti-CD4 (clone 6D10, FITC-labelled) was from ImmunoTools (Friesoythe, Del.). Dual-Color Reagent Mouse IgG1/FITC+ Mouse IgG1/PE from DAKO (clone DAK-GO1 directed towards Aspergillus niger glucose oxidase) was used as negative control.

CXCR4 = assay: Cell surface expression of CXCR4 on MT-2 cells by flow cytometry; assay type: cell-based, human
Method: as §1

[3] = tested on: HIV-1 latent infected cells; details: three of four patients; VPA 500-750 mg twice a day; cited from earlier work
IκBα = assay: Western blot of IκBα phosphorylation and degradation (NF-κB pathway) in Jurkat-LAT-GFP cells; assay type: cell-based
Method: (§2) Jurkat-LAT-GFP cells were stimulated with increasing concentrations of bryostatin-1 and the phosphorylation and degradation of the NF-κB inhibitor Iκbα, and the phosphorylation (activation) of the MAPKs, ERK and JNK, were investigated by western blots using specific mAbs.
(§3) Jurkat LAT-GFP cells were incubated with either bryostatin-1 (1, 10, 25, 50 and 100 nM) or with prostratin (0.01, 0.05, 0.1, 0.5, 1 and 10 μM) for 10 min. IκBα phosphorylation and degradation, the phosphorylation status of MAPKs ERK 1+2 and JNK 1+2, and the steady state levels of total ERK 1+2 were analyzed using specific antibodies by western blots. Control and treated cells were washed with PBS and proteins extracted in 50 μl of lysis buffer (20 mM Hepes pH 8.0, 10 mM KCl, 0.15 mM EGTA, 0.15 mM EDTA, 0.5 mM Na3VO4, 5 mM NaFl, 1 mM DTT, leupeptin 1 μg/ml, pepstatin 0.5 μg/ml, aprotinin 0.5 μg/ml, and 1 mM PMSF) containing 0.5% NP-40. Protein concentration was determined by the Bradford assay (Bio-Rad, Richmond, Calif., USA) and thirty μg of proteins were boiled in Laemmli buffer and electrophoresed in 10% SDS/polyacrylamide gels. Separated proteins were transferred to nitrocellulose membranes (0.5 A at 100 V; 4° C.) for 1 h. […]

MAPKs ERK1+2 and JNK1+2 = assay: Western blot of phosphorylation (activation) of MAPKs ERK and JNK in Jurkat-LAT-GFP cells; assay type: cell-based
Method: as §2, §3

HIVIIIB variant of HIV-1 = assay: Virus-induced cytotoxicity assay (HIV-1-induced cell death in CEM-SS cells, XTT); assay type: cell-based
Method: The human T-lymphoblastic cell line CEM-SS was used as the target cell line and virus infections were performed using the HIVIIIB variant of HIV-1 (FIG. 13). Briefly, increasing concentrations of bryostatins (1, 2, 3 and AB) or 3TC (a known inhibitor of HIV RT) were incubated with 5,000 CEM-SS cells and HIVIIIB in a final volume of 200 μl/well at 37° C. for 6 days. After 6 days, 50 μl/well of XTT dye was added and the plate incubated for 4 hours at 37° C. The plate was then read at 450 nm with a reference at 630 nm and the percent CPE, percent inhibition, percent toxicity, effective concentration 50 (EC50), cytotoxic concentration (CC50) and the selective index (CC50/EC50) were calculated. Plates contained the following controls: media, cellular and viral.

[4] = cited from earlier work
[5] = MT-2 cells, 10 nM bryostatin, 24 h
[6] = increasing concentrations of bryostatin-1

CN(C)CCCn1cc(C2=C(c3c[nH]c4ccccc34)C(=O)NC2=O)c2ccccc21 [Gö6850]
Inhibition of GFP expression induced by Bryostatin-1 [1]: strongly inhibited

Cn1c2ccccc2c2c3c(c4c5ccccc5n(CCC#N)c4c21)CNC3=O [Gö6976]
Inhibition of GFP expression induced by Bryostatin-1 [1]: strongly inhibited

COc1ccc2c(c1)c(C1=C(c3c[nH]c4ccccc34)C(=O)NC1=O)cn2CCCN(C)C [Gö6983]
Inhibition of GFP expression induced by Bryostatin-1 [1]: strongly inhibited

COc1cccc(-c2cc(=O)c3ccccc3o2)c1N [PD98059]
Inhibition of GFP expression induced by Bryostatin-1 [1]: partially inhibited

CC(/C=C/C(=O)NO)=C\[C@@H](C)C(=O)c1ccc(N(C)C)cc1 [TSA, trichostatin A, reference compound]
Synergy with bryostatin-1 to antagonise HIV-1 latency [2]: synergises

CCCC(CCC)C(=O)O [Valproic acid, valproic acid, reference compound]
Synergy with bryostatin-1 to antagonise HIV-1 latency [2]: synergises
Effect of VPA on bryostatin-induced CD4 downregulation (CD4; [5]): not affected
Effect of VPA on bryostatin-induced CXCR4 downregulation (CXCR4; [5]): not affected
Depletion of HIV-1 latent infected cells in patients [3]: significant depletion

CCC/C=C/C=C/C(=O)O[C@H]1/C(=C/C(=O)OC)C[C@H]2C[C@H]([C@@H](C)O)OC(=O)C[C@H](O)C[C@@H]3C[C@H](OC(C)=O)C(C)(C)[C@](O)(C[C@@H]4C/C(=C/C(=O)OC)C[C@H](/C=C/C(C)(C)[C@]1(O)O2)O4)O3 [bryostatin-1]
HIV-1 reactivation in the presence of valproic acid [2]: can induce HIV-1 reactivation
HIV-1 reactivation ([2]; Jurkat-LAT-GFP cells): strongly induce HIV-1 reactivation; also recorded: fully reactivates HIV-1 latency
Potency to antagonize HIV-1 latency relative to prostratin ([2]; Jurkat-LAT-GFP cells, 6 h, versus prostratin): 100 Fold
HIV-1 reactivation (GFP+ cells) ([2]; bryostatin-1 100 nM, Jurkat-LAT-GFP cells): 87 % of GFP+ cells
Reduction of the bryostatin-1 concentration allowed by HDACs inhibitors ([2]; in combination with HDACs inhibitors): at least one order of magnitude
IκBα phosphorylation and degradation (IκBα; 10 nM): does not induce
Phosphorylation and degradation of IκBα (IκBα; [6]): induced phosphorylation and degradation
JNK activation (MAPKs ERK1+2 and JNK1+2; 10 nM): does not induce
Activation of the MAPKs ERK1+2 and JNK1+2 (MAPKs ERK1+2 and JNK1+2; [6]): in a concentration dependent manner
Expression of HIV-1 receptor CD4 (CD4; 10 nM): downregulates
Expression of HIV-1 receptor CXCR4 (CXCR4; 10 nM): downregulates
EC50 (HIVIIIB variant of HIV-1): 26 nM
Tissue accumulation after i.v. injection [4]: accumulated in several tissues including lymph nodes and the gastrointestinal tract

CCC/C=C/C=C/C(=O)O[C@H]1[C@H]2C=C3C[C@H]([C@@H](C)O)OC(=O)C[C@H](O)C[C@@H]4C[C@H](OC(C)=O)C(C)(C)[C@](O)(C[C@@H]5C/C(=C\C(=O)OC)C[C@H](/C=C/C(C)(C)[C@]1(OC(=O)C2)O3)O5)O4 [bryostatin-3]
HIV-1 reactivation ([2]; Jurkat-LAT-GFP cells): strongly induce HIV-1 reactivation

CC(=O)c1c(O)c(C)c(O)c(Cc2c(O)c3c(c(C(=O)/C=C/c4ccccc4)c2O)OC(C)(C)C=C3)c1O [rottlerin]
Inhibition of GFP expression induced by Bryostatin-1 [1]: did not affect

bryostatin-2
HIV-1 reactivation ([2]; Jurkat-LAT-GFP cells): strongly induce HIV-1 reactivation

Reference: patent US20100166806A1, “Combination therapy comprising the use of protein kinase C modulators and Histone Deacetylase inhibitors for treating HIV-1 latency” (Aphios Corporation, priority 2008, published 2010)
